Experimental data reported in ChEMBL document CHEMBL1201862, “PubChem BioAssay data set” (2004).
Active and inactive are the calls of the source.

Assays:
[1] = target: Paired box protein Pax-8 (Homo sapiens, UniProt Q06710); assay: PAX8 transcriptional activity inhibition in RMG-I – RMG-I cells, luciferase, cherry-pick, dose response (AID 687027); format: functional, cell-based;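 further: luciferase reporter driven by Pax8 target thyroperoxidase promoter measured by SteadyGlo luminescence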
[2] = OVCAR-3 cell viability loss – plate reader, dry powder samples, PAX8 inhibitor project, dose response (AID 743044); format: functional, cell-based
[3] = target: T1, Caspase-6 (Homo sapiens, UniProt P55212); assay: inhibition of CASP6 peptide cleavage – biochemical, VEID-R110 fluorescence, cherry-pick, dose response (AID 720632)
T1 sequence (P55212 whole entry): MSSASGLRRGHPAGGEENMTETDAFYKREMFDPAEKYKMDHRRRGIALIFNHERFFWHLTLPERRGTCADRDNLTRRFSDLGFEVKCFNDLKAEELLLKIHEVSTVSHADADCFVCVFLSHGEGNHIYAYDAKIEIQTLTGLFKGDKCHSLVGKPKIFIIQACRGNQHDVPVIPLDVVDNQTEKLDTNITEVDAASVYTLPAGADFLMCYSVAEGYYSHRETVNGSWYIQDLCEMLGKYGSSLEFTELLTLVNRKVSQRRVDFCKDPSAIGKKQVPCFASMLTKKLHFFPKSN

[4] = target: T2, Leucine aminopeptidase (Plasmodium falciparum 3D7, UniProt Q8IL11); assay: P. falciparum M17LAP inhibitors, primary screen, biochemical, fluorogenic H-Leu-NHMec substrate, 1536-well (AID 1619); format: functional
T2 sequence (Q8IL11 whole entry): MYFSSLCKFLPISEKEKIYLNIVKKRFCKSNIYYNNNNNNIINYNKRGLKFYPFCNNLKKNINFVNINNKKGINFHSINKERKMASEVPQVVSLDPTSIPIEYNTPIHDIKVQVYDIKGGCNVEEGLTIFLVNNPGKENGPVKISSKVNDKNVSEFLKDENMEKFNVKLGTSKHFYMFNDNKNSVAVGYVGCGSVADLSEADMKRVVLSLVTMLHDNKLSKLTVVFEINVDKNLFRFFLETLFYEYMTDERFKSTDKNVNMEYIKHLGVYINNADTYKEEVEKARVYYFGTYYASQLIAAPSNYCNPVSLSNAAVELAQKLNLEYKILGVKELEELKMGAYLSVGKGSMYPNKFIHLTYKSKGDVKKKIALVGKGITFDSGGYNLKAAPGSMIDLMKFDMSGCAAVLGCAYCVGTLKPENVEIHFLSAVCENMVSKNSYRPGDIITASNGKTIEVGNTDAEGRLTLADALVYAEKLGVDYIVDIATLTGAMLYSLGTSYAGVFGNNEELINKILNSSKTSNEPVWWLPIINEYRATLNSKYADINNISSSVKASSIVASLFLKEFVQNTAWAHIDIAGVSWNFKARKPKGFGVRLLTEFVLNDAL

[5] = target: T3, Ubiquitin-conjugating enzyme E2 N (Homo sapiens, UniProt P61088); format: functional;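 further: Dose-response confirmation in a TR-FRET assay detecting UBC13-driven polyubiquitin chain formation, inhibition measured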
T3 sequence (P61088 whole entry): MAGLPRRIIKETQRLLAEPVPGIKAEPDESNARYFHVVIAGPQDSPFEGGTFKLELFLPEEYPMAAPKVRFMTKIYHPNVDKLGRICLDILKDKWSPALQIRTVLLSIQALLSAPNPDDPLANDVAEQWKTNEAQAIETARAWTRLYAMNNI

[6] = target: T4, DNA repair protein RAD52 homolog (Homo sapiens, UniProt P43351); format: functional, biochemical
T4 sequence (P43351 whole entry): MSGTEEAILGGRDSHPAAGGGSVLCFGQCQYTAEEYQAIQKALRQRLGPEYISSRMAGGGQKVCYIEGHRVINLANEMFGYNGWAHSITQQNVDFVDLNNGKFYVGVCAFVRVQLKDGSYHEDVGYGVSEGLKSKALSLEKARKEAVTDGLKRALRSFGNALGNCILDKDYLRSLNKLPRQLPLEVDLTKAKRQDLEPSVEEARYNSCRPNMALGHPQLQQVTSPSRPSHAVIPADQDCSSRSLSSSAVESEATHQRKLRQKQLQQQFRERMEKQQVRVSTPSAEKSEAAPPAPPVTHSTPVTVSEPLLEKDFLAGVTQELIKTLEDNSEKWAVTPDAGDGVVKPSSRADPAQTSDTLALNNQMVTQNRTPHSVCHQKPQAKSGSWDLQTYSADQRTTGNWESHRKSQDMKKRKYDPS

[7] = target: Genome polyprotein (dengue virus type 2, UniProt P29990); assay: flavivirus cap methylation enzyme inhibition – biochemical, confirmation dose response, primary screen (AID 588689); format: functional
[8] = target: T5, Short transient receptor potential channel 4 (Mus musculus, UniProt Q9QUQ5); assay: calcium entry via TRPC4 opening agents – cell-based, HEK293 TRPC4/mu-opioid, Fluo-4 calcium, dose response (AID 434937); format: functional
T5 sequence (Q9QUQ5 whole entry): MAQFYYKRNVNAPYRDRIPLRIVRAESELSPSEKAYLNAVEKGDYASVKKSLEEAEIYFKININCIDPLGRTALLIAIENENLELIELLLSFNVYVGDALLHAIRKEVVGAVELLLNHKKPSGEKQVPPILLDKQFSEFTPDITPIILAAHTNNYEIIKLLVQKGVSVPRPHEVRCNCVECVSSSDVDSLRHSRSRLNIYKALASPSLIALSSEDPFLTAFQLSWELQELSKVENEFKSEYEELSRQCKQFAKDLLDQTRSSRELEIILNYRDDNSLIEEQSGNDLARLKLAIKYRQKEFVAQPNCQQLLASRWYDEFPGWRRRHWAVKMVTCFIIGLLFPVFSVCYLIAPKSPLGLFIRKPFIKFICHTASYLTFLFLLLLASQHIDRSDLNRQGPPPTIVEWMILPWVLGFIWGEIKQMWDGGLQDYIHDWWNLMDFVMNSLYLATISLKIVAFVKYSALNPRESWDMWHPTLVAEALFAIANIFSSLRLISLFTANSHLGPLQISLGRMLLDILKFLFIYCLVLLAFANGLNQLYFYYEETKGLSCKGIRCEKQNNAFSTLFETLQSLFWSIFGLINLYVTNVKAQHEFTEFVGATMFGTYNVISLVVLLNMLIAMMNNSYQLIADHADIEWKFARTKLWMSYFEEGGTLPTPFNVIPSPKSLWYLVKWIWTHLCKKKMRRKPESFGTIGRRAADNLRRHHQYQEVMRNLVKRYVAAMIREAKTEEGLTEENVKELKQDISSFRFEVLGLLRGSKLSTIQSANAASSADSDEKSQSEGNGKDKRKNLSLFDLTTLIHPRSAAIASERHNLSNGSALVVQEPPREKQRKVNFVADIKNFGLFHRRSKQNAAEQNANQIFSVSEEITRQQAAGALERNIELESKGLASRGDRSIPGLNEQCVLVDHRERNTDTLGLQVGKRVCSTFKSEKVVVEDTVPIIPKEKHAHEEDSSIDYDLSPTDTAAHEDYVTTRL

[9] = target: Cytochrome P450 2C19 (Homo sapiens, UniProt P33261); assay: Cytochrome panel assay with activity outcomes. Panel member name: p450-cyp2c19 Compounds with AC50 equal or less than 10 uM are considered active; format: functional; conditions: read-out: AC50
[10] = target: Cytochrome P450 2C9 (Homo sapiens, UniProt P11712)
[11] = target: T6, Coagulation factor XII (Homo sapiens, UniProt P00748); format: functional;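 further: activated factor XIIa alpha cleaving a fluorogenic AMC peptide substrate; inhibitor potency from loss of enzyme activity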
T6 sequence (P00748 whole entry): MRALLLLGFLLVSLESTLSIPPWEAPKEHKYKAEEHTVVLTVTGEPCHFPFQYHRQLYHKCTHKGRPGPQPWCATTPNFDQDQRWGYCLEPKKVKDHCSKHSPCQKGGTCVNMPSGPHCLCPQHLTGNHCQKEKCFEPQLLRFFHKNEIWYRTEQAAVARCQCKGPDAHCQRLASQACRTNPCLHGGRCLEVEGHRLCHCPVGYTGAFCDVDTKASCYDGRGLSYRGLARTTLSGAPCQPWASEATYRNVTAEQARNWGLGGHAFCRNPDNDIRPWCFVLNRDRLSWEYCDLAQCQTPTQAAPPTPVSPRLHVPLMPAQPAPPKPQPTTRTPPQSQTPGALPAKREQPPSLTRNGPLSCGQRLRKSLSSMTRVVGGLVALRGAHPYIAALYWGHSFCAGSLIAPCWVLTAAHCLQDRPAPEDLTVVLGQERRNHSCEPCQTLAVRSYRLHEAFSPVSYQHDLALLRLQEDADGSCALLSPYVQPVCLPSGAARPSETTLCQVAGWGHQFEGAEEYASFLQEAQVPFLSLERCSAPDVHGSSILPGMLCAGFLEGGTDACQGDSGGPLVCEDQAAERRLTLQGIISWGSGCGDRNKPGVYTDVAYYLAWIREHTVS

[12] = target: T5, Short transient receptor potential channel 4; assay: block of DAMGO-driven TRPC4 calcium entry – cell-based, HEK293 TRPC4/mu-opioid, Fluo-4 calcium, dose response (AID 434942); format: functional;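 further: potency of inhibitors blocking the TRPC4 calcium response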
[13] = target: T7, Corticotropin-releasing factor receptor 2/Corticotropin-releasing factor-binding protein (Homo sapiens, UniProt P24387+Q13324); assay: activators of CRF receptor 2 with binding protein – uHTS hits, confirmation (AID 602473); format: functional; conditions: read-out: EC50_Mean
T7 sequence (Q13324 whole entry): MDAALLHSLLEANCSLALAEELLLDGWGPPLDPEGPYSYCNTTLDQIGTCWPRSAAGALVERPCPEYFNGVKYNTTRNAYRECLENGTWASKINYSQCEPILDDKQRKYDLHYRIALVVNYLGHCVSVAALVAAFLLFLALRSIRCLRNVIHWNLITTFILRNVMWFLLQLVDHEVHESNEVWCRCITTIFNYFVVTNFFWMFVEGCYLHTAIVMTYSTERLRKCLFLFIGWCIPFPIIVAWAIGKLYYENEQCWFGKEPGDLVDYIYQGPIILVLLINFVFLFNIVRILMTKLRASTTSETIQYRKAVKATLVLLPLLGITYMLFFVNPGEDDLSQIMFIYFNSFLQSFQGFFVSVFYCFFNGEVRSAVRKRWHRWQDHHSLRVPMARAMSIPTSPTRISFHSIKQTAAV
T7 sequence (P24387 whole entry): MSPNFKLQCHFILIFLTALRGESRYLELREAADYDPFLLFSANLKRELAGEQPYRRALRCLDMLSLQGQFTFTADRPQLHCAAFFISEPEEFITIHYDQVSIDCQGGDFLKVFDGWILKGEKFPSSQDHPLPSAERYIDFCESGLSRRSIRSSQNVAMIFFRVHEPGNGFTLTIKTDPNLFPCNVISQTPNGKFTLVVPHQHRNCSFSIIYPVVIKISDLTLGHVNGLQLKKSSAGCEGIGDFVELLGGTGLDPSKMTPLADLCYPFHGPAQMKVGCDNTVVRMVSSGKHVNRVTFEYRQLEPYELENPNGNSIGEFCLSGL

[14] = OVCAR8 cell viability loss – plate reader, dry powder samples, PAX8 project, dose response (AID 743197); format: functional, cell-based; conditions: OVCAR-8
[15] = reduction of Shn3 3'UTR-driven luciferase in osteoblasts – cell-based, Clone20 osteoblasts, firefly luciferase, cherry-picked, dose response (AID 624132); format: functional;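 further: firefly luciferase luminescence from reporter carrying the Shn3 3'UTR in osteoblasts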
[16] = cells; format: functional, cell-based
[17] = cells; format: functional, cell-based; remark: listed apart in the source

Chain of Paired box protein Pax-8 (Q06710 whole entry): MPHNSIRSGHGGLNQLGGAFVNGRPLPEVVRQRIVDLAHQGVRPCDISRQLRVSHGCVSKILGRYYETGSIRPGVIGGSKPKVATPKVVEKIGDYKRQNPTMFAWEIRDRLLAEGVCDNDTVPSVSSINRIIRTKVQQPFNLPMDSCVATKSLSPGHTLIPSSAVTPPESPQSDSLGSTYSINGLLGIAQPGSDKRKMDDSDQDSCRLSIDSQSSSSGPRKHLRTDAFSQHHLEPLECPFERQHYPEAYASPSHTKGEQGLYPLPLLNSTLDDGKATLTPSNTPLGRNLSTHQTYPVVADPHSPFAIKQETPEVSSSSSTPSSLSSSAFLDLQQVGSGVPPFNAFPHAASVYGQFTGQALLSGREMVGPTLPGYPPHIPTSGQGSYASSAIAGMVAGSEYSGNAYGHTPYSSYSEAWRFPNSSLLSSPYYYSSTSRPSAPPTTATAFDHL
Chain of Cytochrome P450 2C19 (P33261 whole entry): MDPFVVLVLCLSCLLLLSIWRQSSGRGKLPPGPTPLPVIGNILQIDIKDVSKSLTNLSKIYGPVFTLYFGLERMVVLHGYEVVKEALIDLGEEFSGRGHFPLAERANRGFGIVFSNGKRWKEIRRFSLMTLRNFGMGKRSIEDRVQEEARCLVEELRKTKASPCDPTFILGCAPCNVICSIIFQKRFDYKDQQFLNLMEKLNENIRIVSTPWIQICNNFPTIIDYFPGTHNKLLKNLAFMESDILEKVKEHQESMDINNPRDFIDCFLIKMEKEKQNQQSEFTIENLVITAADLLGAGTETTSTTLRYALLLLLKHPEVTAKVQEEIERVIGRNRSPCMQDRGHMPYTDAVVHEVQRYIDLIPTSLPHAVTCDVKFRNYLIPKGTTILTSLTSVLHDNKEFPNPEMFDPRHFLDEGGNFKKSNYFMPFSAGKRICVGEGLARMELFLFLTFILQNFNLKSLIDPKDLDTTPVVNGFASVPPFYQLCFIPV
Chain of Cytochrome P450 2C9 (P11712 whole entry): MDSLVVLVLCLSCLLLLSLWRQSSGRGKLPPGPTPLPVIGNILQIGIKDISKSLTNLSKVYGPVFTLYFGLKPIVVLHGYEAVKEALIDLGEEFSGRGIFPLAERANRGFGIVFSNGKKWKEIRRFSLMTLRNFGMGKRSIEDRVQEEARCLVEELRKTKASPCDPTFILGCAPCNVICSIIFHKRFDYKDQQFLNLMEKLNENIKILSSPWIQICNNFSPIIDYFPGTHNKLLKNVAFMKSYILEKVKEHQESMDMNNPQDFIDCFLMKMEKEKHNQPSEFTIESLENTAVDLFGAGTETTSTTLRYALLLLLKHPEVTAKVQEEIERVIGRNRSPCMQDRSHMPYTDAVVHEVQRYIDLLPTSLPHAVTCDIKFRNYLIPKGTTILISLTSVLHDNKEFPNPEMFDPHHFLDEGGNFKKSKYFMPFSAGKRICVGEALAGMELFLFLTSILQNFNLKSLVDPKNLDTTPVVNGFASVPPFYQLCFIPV
Chain of Genome polyprotein (P29990 2492-3391 limits assumed): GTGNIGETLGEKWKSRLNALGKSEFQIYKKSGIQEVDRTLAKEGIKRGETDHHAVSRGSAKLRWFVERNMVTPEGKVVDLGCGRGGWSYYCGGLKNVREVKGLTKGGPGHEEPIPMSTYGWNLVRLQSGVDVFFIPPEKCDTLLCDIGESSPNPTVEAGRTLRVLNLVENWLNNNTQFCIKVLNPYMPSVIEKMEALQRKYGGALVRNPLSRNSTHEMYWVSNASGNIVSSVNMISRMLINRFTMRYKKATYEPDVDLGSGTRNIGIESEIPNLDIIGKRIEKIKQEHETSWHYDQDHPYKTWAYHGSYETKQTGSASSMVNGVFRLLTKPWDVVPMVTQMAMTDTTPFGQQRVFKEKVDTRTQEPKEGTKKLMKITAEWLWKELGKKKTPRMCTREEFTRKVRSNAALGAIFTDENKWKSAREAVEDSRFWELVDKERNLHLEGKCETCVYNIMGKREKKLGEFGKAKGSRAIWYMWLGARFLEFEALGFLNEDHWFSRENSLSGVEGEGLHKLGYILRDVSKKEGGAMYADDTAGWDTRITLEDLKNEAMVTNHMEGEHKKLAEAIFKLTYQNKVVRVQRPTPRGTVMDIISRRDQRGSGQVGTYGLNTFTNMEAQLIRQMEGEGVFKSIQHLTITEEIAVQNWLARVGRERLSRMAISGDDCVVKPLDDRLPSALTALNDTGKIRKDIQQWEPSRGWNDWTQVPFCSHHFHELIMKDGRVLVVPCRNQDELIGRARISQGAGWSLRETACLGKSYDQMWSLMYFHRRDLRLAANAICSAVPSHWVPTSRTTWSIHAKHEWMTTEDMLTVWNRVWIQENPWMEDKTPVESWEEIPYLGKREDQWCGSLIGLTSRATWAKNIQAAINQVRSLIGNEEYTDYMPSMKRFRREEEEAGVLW

C[C@H](CO)N1C[C@H](C)[C@H](CN(C)CC2CCCCC2)Oc2ccc(NS(=O)(=O)c3ccc(Cl)cc3)cc2CC1=O
AC50 [1]: 7.77 µM (active) | AC50 [2]: 58.6 µM (active)

CSc1ccc(CN2CCC(C)(Oc3cnc(Cl)c4ccccc34)C2)cc1 (centres undefined)
AC50 [3]: 46 µM (active)

CCOc1ccc(NC(=O)CN2C(=O)C3CC=CCC3C2=O)cc1 (centres undefined)
IC50 [4]: 3.86 µM (active)

Cc1cccc(-c2nc3ccc(C(=O)NCCN4CCN(C)CC4)cc3nc2-c2cccc(C)c2)c1
IC50 [5]: > 20 µM (inactive) | AC50 [6]: 9.79 µM (active)

COc1ccc(Cl)cc1/C=C1/C(=O)ON=C1C
IC50 [7]: > 100 µM (active)

CCCCN(C)CCCNC(=O)CN1N=C(c2ccc(Cl)cc2)CCC1=O
EC50 [8]: 0.596 µM (active)

CCC(C)[C@H](NC(=O)Nc1ccc(Oc2ccccc2)cc1)C(=O)O (some centres undefined)
IC50 [4]: 21.8 µM (active) | AC50 [9]: 5.62 µM (inconclusive) | AC50 [10]: 8.91 µM (inconclusive)

COc1cccc2sc(/N=C/N(C)C)nc12
IC50 [11]: > 50 µM (inactive)

O=C(NC(Cc1ccc2c(c1)OCO2)C(=O)NC(Cc1ccccc1)C(=O)O)c1ccccc1 (centres undefined)
IC50 [4]: 19.7 µM (active)

c1csc(-c2nc3ccccc3[nH]2)c1
IC50 [11]: > 50 µM (inactive)

Cc1cc(C)c(C#N)c(SCC(O)CS(=O)(=O)Cc2ccccc2)n1 (centres undefined)
IC50 [4]: 31.5 µM (active)

COc1cc(C(=O)NC(=S)NNC(=O)[C@H]2C[C@@H]2c2ccccc2)cc(OC)c1OC
EC50 [8]: 3.76 µM (active)

CCOc1ccccc1N(CC(=O)N1CCOCC1)S(=O)(=O)c1ccccc1
EC50 [12]: 6.68 µM (active) | EC50 [8]: 5.31 µM (active) | EC50 [13]: 8.04 µM (active)

C[C@H]1CCCCO[C@H](CN(C)Cc2ccc(C(F)(F)F)cc2)[C@@H](C)CN([C@@H](C)CO)C(=O)c2cc(NS(=O)(=O)c3ccc(F)cc3)ccc2O1
AC50 [1]: 9.73 µM (active) | AC50 [2]: 44.9 µM (active) | AC50 [14]: 43.6 µM (active)

C[C@@H]1CCCCO[C@@H](CN(C)S(=O)(=O)c2cccs2)[C@H](C)CN([C@H](C)CO)C(=O)c2cc(NC(=O)Nc3ccc(C(F)(F)F)cc3)ccc2O1
AC50 [1]: 3.17 µM (active) | AC50 [14]: > 70 µM (inactive)

O=Cc1ccc(OCC(=O)Nc2ccccc2C(F)(F)F)cc1
IC50 [11]: > 50 µM (inactive)

C/C(CC1CC(C)(C)OC1=O)=N/Nc1nc(-c2ccccc2)cs1 (centres undefined)
IC50 [4]: 52.8 µM (active)

C=CCOC(=O)C1=C(C)N=C2SCCC(=O)N2C1c1cccs1 (centres undefined)
IC50 [11]: > 50 µM (inactive) | AC50 [15]: > 70 µM (inactive)

COc1cc(C)c(S(=O)(=O)NCc2cccs2)cc1C
IC50 [11]: > 50 µM (inactive)

O=C(O)CC(=O)Nc1ccccc1C(=O)O
IC50 [11]: > 50 µM (inactive)

COc1cccc(S(=O)(=O)Nc2ccc3c(c2)[C@H]2C[C@H](CC(=O)NCc4ccccc4F)O[C@H](CO)[C@H]2O3)c1
AC50 [1]: 16.1 µM (active) | AC50 [14]: > 70 µM (inactive)

CCCn1c(O)cc(=O)nc1SCC(=O)N1CCc2ccccc2C1
IC50 [16]: > 29.9 µM (inactive) | EC50 [17]: > 29.9 µM (inactive)
